The text below walks through data of ChEMBL document CHEMBL1201862, “PubChem BioAssay data set” (2004).

One test addresses Genome polyprotein (dengue virus type 2, UniProt P29990). As to the kind of experiment: flavivirus cap methylation enzyme inhibition – biochemical, confirmation dose response, primary screen (AID 588689). The class given is functional.
In test [1] the target is T1, Zinc finger protein mex-5 (Caenorhabditis elegans, UniProt Q9XUB2).
T1 sequence (Q9XUB2 whole entry): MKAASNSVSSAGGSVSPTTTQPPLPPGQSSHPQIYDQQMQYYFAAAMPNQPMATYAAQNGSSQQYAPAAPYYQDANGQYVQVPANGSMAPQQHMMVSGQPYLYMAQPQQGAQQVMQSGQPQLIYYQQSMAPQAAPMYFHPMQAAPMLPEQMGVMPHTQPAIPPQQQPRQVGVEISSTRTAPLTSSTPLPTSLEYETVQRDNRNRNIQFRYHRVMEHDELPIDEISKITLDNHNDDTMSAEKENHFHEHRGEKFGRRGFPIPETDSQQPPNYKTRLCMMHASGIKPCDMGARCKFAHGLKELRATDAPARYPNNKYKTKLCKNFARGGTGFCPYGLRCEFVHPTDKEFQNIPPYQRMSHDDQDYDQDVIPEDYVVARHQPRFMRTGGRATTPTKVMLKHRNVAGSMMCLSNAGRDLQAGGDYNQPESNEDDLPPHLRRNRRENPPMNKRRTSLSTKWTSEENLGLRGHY
Description: potency of MEX-5 RNA-binding blockers – biochemical, C. elegans, fluorescence polarization, dose response (AID 1960).

Test [2] has as its target T2, Rac GTPase-activating protein 1 (Homo sapiens, UniProt Q9H0H5).
T2 sequence (Q9H0H5 whole entry): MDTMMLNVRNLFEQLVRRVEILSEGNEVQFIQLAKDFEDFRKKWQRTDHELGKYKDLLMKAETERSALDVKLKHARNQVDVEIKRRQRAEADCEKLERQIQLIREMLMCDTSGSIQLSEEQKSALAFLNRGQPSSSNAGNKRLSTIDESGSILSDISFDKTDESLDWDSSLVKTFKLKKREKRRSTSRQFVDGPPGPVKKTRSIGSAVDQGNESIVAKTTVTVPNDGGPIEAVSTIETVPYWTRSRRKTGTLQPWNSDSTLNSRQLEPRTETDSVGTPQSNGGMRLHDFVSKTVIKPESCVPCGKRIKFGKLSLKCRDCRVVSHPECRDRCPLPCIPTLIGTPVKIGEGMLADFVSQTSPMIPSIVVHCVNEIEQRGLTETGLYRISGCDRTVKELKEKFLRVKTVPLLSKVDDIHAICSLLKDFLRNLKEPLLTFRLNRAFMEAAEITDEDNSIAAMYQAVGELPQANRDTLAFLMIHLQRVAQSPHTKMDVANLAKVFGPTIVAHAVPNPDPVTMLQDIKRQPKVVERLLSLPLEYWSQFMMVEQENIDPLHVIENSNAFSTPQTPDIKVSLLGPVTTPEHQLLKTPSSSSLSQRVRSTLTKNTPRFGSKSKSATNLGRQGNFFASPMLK
As to the kind of experiment: blockers of MgcRacGAP-driven Rac1 GTP hydrolysis – biochemical, ADP Hunter fluorescence, primary and confirmatory, confirmation (AID 624330). The class given is functional.

The target in test [3] is T3, RNA-binding protein pos-1 (Caenorhabditis elegans, UniProt G5EF15).
T3 sequence (G5EF15 whole entry): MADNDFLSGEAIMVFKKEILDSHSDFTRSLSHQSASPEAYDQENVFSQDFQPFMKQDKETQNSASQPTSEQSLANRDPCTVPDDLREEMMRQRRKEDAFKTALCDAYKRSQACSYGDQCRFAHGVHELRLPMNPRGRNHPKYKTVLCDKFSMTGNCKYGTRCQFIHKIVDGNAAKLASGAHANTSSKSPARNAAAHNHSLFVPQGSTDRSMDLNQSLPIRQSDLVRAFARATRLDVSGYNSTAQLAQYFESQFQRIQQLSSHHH
Description: disruptors of C. elegans POS-1 RNA interaction – biochemical, fluorescence polarization, dose response (AID 1964).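 Also: purified POS-1 fused to maltose binding protein made in E. coli; potency of compounds blocking POS-1 binding to fluorescent RNA.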

Test [4] has as its target Induced myeloid leukemia cell differentiation protein Mcl-1 (Homo sapiens, UniProt Q07820). The class given is functional.
For a further test, the target named is T4, Bcl-2-like protein 10 (Homo sapiens, UniProt Q9HD36).
T4 sequence (Q9HD36 whole entry): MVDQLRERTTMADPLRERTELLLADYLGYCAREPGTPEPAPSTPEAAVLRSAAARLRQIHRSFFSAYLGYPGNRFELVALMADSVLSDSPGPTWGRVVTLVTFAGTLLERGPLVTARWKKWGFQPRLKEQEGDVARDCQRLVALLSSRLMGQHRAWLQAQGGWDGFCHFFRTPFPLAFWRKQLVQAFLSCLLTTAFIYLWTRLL
As to the kind of experiment: Bcl-B/TR3 peptide binding disruption – biochemical, fluorescence polarization, FITC-TR3 peptide, selectivity assay for Bfl-1 inhibitor project, primary screen (AID 748).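 Also: fluorescence polarization from a fluorescein-labelled TR3 peptide binding purified Bcl-B.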

A short description of test [5]: Luminescence Cell-Based Dose Retest to Confirm Inhibitors of Cancer Stem Cells. [Related pubchem assays (depositor defined):AID2717, AID2721]. The format is functional. Conditions: Homo sapiens.
For test [6], the target named is T5, Microphthalmia-associated transcription factor (Homo sapiens, UniProt O75030).
T5 sequence (O75030 whole entry): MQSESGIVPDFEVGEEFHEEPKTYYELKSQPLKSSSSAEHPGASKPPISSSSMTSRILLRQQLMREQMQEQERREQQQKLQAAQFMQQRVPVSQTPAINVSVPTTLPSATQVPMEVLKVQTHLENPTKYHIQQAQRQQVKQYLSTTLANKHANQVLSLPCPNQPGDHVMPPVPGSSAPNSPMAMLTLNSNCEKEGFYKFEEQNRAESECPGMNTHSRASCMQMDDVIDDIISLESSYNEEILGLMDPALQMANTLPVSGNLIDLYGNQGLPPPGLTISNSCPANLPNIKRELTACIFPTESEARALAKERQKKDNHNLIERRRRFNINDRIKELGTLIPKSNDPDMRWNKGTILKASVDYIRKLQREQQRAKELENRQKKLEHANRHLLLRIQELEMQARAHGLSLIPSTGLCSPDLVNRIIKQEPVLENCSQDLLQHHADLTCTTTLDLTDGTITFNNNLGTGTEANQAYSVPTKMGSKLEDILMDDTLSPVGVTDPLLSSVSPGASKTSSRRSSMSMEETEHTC
As to the kind of experiment: reducers of TRPM1 reporter luminescence, concentration series – cell-based, SK-MEL-5, cherry-picked, set 3, MITF inhibitor project, dose response (AID 493073).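 Also: SK-MEL-5 melanoma cells with luciferase driven by the MITF target TRPM1 promoter.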 The format is functional.

The next test deals with Cytochrome P450 2C9 (Homo sapiens, UniProt P11712).
Cytochrome P450 2C9, sequence (P11712 whole entry): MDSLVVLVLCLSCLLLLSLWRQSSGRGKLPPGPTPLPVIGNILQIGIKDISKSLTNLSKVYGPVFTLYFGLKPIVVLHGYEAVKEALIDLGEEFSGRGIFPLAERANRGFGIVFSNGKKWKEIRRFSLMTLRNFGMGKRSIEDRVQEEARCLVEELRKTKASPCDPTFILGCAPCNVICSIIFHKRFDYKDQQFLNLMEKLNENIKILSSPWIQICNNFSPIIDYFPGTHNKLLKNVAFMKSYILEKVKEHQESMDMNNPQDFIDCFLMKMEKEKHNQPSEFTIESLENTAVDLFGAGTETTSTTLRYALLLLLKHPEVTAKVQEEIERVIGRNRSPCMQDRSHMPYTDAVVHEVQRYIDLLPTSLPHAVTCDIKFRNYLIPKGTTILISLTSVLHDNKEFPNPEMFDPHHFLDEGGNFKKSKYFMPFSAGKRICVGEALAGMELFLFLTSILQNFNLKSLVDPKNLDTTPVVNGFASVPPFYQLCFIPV
Test [7] deals with T6, Voltage-gated N-type calcium channel alpha-1B subunit/Amyloid beta A4 precursor protein-binding family A member 1 (Homo sapiens, UniProt Q00975+Q02410). The format is protein assay.
T6 sequence (Q00975 whole entry): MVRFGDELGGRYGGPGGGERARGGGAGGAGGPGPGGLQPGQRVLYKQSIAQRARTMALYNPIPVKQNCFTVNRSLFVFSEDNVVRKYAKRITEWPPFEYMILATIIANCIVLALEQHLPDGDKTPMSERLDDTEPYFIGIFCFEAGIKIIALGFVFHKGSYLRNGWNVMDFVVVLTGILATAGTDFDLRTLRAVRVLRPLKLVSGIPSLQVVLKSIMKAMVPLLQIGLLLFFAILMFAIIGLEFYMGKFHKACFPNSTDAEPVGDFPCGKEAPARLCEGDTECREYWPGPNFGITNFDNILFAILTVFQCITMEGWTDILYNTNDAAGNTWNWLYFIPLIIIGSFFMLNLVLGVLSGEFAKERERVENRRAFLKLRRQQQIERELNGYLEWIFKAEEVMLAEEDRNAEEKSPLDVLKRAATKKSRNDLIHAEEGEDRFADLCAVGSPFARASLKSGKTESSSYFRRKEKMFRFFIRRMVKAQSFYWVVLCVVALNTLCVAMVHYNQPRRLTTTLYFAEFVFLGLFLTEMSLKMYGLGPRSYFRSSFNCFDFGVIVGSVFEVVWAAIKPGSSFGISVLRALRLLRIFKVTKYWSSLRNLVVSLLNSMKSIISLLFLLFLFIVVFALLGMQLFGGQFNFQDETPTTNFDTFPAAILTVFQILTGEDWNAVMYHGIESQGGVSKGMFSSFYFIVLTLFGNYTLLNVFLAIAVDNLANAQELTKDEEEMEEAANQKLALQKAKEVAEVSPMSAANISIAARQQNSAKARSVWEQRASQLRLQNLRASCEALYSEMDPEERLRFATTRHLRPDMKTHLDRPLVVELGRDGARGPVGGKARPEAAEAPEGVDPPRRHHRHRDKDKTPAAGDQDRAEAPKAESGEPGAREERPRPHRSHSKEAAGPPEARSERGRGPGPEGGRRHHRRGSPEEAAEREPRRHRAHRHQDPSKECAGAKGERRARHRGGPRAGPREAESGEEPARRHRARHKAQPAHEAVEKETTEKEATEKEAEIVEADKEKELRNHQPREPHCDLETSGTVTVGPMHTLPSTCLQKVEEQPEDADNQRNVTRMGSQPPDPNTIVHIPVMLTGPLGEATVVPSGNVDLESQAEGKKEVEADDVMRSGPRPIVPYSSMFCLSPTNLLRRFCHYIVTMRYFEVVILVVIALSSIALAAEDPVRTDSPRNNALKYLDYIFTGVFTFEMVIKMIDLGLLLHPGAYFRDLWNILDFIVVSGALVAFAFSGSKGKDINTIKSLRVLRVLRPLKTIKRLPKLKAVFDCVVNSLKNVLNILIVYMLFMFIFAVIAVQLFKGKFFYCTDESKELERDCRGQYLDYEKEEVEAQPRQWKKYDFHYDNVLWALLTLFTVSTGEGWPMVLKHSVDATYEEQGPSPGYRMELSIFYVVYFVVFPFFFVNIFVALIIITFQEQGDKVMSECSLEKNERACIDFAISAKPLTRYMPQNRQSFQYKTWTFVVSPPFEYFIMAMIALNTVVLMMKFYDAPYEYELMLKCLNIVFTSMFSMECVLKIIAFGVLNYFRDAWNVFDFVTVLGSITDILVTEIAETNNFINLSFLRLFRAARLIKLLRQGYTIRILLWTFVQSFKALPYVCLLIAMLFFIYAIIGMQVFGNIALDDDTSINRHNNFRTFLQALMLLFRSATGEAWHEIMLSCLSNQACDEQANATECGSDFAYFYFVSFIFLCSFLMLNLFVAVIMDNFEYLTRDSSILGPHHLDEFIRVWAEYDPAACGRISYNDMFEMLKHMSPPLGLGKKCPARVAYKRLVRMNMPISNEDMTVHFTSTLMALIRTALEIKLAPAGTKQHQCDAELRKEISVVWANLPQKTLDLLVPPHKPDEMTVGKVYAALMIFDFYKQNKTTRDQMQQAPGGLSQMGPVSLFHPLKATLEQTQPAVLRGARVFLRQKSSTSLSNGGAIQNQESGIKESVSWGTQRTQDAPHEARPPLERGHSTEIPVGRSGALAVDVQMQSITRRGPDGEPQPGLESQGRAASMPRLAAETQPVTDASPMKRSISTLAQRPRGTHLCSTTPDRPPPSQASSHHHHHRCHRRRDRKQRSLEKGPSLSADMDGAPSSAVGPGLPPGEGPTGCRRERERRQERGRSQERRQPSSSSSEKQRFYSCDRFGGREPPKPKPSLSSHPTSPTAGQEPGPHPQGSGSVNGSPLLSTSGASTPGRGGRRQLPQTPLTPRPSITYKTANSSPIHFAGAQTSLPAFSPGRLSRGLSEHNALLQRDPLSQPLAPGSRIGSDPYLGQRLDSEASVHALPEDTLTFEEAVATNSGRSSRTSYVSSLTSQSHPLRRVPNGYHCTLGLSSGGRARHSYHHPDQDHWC
T6 sequence (Q02410 whole entry): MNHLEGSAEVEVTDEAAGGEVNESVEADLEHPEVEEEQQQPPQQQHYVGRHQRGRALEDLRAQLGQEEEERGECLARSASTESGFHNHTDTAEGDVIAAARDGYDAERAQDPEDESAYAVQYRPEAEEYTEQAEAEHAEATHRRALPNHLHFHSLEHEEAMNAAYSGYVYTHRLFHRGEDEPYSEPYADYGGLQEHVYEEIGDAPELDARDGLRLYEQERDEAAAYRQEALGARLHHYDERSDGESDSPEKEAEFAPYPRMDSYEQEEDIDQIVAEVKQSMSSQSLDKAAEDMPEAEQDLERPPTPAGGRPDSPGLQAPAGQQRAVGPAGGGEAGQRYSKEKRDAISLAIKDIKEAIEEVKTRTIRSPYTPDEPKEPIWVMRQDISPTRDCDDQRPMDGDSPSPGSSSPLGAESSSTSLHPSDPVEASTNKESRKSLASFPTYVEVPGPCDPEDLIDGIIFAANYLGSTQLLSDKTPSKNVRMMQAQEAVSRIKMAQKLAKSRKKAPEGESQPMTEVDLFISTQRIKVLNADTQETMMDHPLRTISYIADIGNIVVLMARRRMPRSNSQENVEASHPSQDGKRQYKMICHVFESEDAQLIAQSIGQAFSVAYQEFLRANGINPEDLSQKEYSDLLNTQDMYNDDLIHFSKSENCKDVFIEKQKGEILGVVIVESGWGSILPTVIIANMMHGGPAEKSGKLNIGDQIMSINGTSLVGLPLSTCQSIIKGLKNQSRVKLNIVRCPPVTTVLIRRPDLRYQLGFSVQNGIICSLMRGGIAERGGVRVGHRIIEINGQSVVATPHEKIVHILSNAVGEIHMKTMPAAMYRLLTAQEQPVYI
The target in test [8] is T6, Voltage-gated N-type calcium channel alpha-1B subunit/Amyloid beta A4 precursor protein-binding family A member 1. The class given is protein assay. The source holds these as a separate data set.
The target of another test is Cytochrome P450 2C19 (Homo sapiens, UniProt P33261). Description: Cytochrome panel assay with activity outcomes. Panel member name: p450-cyp2c19 Compounds with AC50 equal or less than 10 uM are considered active. The class given is functional. Conditions: read-out: AC50.
A short description of test [9]: MIN6 cell viability loss – mouse insulinoma, cytotoxicity control, dose response (AID 2122).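 Also: confirmatory high-throughput counterscreen run to flag cytotoxic compounds.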 The class given is functional.
Test [10] is described as follows: decrease of insulin promoter-GFP reporter – imaging, high-content screening, mouse beta cells (AID 1628). The class given is functional. The note with it: MIN6.
For test [11], the target named is T7, High affinity choline transporter 1 (Homo sapiens, UniProt Q9GZV3).
T7 sequence (Q9GZV3 whole entry): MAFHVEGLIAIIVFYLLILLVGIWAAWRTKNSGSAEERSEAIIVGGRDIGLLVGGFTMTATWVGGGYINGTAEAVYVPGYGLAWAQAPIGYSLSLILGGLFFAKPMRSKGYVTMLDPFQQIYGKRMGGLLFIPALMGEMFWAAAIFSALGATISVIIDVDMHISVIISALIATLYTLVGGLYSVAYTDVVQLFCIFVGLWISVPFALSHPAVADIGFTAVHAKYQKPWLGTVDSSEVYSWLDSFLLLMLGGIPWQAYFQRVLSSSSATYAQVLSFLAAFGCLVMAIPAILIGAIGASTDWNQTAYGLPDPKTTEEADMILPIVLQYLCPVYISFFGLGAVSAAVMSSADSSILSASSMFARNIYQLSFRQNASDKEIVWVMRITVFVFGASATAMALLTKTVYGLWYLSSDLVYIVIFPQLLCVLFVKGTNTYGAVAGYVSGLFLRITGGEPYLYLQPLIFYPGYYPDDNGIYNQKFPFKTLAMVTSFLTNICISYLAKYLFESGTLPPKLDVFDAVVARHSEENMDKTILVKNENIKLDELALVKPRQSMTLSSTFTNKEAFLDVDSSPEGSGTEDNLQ
Description: human choline transporter blockers, potency – cell-based, 5-point CRC, membrane potential dye, dose response (AID 504840). The format is functional.

In a further test the test system is INS1. Description: INS-1E survival protection against cytokine death – cell-based, luminescence, retest, dose response (AID 449756).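 Also: cell death triggered by IL-1 beta plus TNF-alpha plus IFN-gamma mixture; protective hits raise ATP signal compared with cytokine alone wells.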 The note with it: Rattus norvegicus. The class given is functional.
Test [12] can be described thus: THP-1 cell cytotoxicity, dose response, cytotoxicity control for non-replicating M. tuberculosis project (AID 489025). The format is functional.
Another test is described as follows: cells. The format is functional.
For a further test, the target named is Prothrombin (Homo sapiens, UniProt P00734). As to the kind of experiment: Thrombin 1536 HTS Dose Response Confirmation. [Related pubchem assays: 1046 (Thrombin 1536 HTS; hits were confirmed in this assay)]. The class given is functional.
Test [13] can be described thus: Vero E6 cell cytotoxicity, dose response, cytotoxicity control for non-replicating M. tuberculosis project, secondary assay (AID 492998). The class given is functional, VeroE6. The note with it: Vero C1008.

SMILES strings stand for the structures. Calls of active or inactive are those of the source.

Induced myeloid leukemia cell differentiation protein Mcl-1, sequence (Q07820 whole entry): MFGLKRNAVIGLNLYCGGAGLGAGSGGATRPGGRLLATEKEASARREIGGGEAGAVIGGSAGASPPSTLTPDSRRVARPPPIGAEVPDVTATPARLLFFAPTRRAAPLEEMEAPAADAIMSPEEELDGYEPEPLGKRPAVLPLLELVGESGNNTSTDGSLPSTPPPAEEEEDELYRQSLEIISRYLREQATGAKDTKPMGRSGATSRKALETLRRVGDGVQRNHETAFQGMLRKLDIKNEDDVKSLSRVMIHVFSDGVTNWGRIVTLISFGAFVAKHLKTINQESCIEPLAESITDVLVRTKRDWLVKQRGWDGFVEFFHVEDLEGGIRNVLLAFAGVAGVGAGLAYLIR
Genome polyprotein, sequence (P29990 2492-3391 limits assumed): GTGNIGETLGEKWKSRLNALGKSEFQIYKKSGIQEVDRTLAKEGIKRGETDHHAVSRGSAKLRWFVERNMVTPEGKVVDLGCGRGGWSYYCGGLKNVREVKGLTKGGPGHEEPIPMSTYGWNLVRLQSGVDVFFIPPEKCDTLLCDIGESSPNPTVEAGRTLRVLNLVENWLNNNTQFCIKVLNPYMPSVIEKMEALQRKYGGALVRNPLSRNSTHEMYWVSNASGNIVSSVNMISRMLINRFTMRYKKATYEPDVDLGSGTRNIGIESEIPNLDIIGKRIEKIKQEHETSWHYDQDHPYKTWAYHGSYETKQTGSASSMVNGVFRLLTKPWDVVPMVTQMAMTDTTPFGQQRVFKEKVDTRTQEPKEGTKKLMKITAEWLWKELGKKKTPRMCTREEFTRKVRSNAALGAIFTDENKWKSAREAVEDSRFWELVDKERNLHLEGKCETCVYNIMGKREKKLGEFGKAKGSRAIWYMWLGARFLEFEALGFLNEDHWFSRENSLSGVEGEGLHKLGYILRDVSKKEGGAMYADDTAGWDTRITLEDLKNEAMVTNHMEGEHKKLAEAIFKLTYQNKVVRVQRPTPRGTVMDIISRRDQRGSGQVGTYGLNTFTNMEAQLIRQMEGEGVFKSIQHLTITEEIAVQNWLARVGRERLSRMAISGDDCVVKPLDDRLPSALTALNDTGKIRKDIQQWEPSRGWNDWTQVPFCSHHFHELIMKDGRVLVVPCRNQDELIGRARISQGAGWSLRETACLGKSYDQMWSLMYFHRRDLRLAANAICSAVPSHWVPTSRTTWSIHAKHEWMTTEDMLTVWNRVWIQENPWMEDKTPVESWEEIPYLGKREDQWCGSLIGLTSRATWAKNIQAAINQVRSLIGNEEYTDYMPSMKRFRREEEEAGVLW

Take `CSc1nc(S)c2[nH]c(S)nc2n1`: the concentration for half-maximal inhibition (IC50) is 30.6 µM (active) on Genome polyprotein and 32.7 µM (active) in test [2]. Further, the values for the EC50 in test [1] and in [3] were 4.78 µM (active) and 5.15 µM (active), respectively.
`Cc1ccc(OCC(=O)Nc2ccc(N3CCCC3)cc2)cc1C`: the IC50 in test [4] is 6.68 µM (active); at Bcl-2-like protein 10, 40.8 µM (active).
With `Cn1c(C(C#N)C2=C(Cl)C(=O)N(c3ccccc3)C2=O)nc2ccccc21` (centres undefined), the IC50 at Bcl-2-like protein 10 is 16.5 µM (active).
On to `CCS(=O)(=O)NCc1ccc2c(c1)cc(C)n2C`, for which the IC50 on Bcl-2-like protein 10 is > 50 µM (inactive).
`Cc1ccc(N2C(=O)NC(=O)/C(=C/C=C/c3ccco3)C2=O)cc1`: the AC50 in test [5] was 1.65 µM (active); in test [6], 5.97 µM (active).
Consider `COc1ccc(CC(=O)Nc2ccc(-c3nnc(-c4ccccc4)o3)cc2)cc1`, for which the AC50 is 0.224 µM (inconclusive) at Cytochrome P450 2C9 and 1.26 µM (inconclusive) on Cytochrome P450 2C19. Further, the IC50 in test [7] is 8.88 µM (active); in test [8], > 50 µM (inactive).
Consider `CC1(C)CC(N2CCCC2)=CC(=[N+]2CCCCC2)C1`, for which the IC50 in [9] and in [10] was < 0.25 µM (active) in each case.
Regarding `CCc1ccc(OC(C)C(=O)Nc2ccc(S(=O)(=O)Nc3nccs3)cc2)cc1` (centres undefined), the half-maximal inhibitory concentration (IC50) in test [11] was 13.8 µM (active).
Consider `Cc1cc(C)nc(-n2nc(C)cc2Nc2ccccc2)n1`, for which the half-maximal activity concentration (AC50) in the test on INS1 is 2.91 µM (active). Besides, the 50% cytotoxic concentration (CC50) in test [12] was > 40 µM (active); in test [13], > 20 µM (active). Also, the IC50 is 0.5 µM (active) in the test “cells” and > 50 µM (not active) against Prothrombin.
Regarding `O=C(CCl)Nc1cccc(S(=O)(=O)NC2=NCCCCC2)c1`, the half-maximal activity concentration (AC50) in test [6] was 7.85 µM (active).
As for `CCOC(=O)C1=C(C)N=c2s/c(=C/c3cccc([N+](=O)[O-])c3O)c(=O)n2C1c1cc(OC)c(OC)c(OC)c1` (centres undefined), the IC50 in test [11] is 13.2 µM (active).
